Test results from ChEMBL document CHEMBL4229450, “The synthetic chalcone derivative 2-hydroxy-3',5,5'-trimethoxychalcone induces unfolded protein response-mediated apoptosis in A549 lung cancer cells” (Bioorg Med Chem Lett, 2018).
Calls of active or inactive are those of the source. The calls are words filed in the database; no cut-off is given here.

Legend:
[1] = test system: A549; test: Cell cycle arrest in human A549 cells assessed as accumulation at sub-G1 phase at 20 uM after 24 hrs by propidium iodide staining based flow cytometry (reference value: 2 to 2.3%); format: functional
[2] = test system: A549; test: Induction of ER stress-activated unfolded protein response pathway in human A549 cells assessed as increase in IRE1alpha-mediated splicing of XBP1 mRNA by measuring increase in 279-/261-base pair fragments at 20 uM within 3 hrs by RT-PCR analysis; format: functional, cell-based
[3] = test system: A549; test: Induction of ER stress-activated unfolded protein response pathway-mediated apoptosis in human A549 cells assessed as increase in cleaved PARP expression at 20 uM pre-treated with stress inhibitor 4-PBA before compound addition by immunoblot analysis; format: functional, cell-based
[4] = test system: A549; test: Induction of ER stress-activated unfolded protein response pathway in human A549 cells assessed as increase in IRE1alpha-mediated splicing of XBP1 mRNA by measuring increase in 540-base pair fragments at 20 uM after 24 hrs by RT-PCR analysis; format: functional, cell-based
[5] = test system: A549; test: Induction of apoptosis in human A549 cells assessed as late apoptotic cells at 20 uM after 24 hrs by Annexn V-FITC/propidium iodide staining based flow cytometry (reference value: 3%); format: functional
[6] = test system: A549; test: Induction of ER stress-activated unfolded protein response pathway in human A549 cells assessed as increase in Bim expression at 20 uM after 12 hrs by immunoblot analysis; format: functional, cell-based
[7] = biological target: T1, Eukaryotic translation initiation factor 2-alpha kinase 3 (Homo sapiens) (UniProt Q9NZJ5); test: Induction of ER stress-activated unfolded protein response pathway in human A549 cells assessed as increase in PERK phosphorylation at Thr981 residue at 20 uM up to 6 hrs by immunoblot analysis; format: cell-based
T1 sequence (whole entry): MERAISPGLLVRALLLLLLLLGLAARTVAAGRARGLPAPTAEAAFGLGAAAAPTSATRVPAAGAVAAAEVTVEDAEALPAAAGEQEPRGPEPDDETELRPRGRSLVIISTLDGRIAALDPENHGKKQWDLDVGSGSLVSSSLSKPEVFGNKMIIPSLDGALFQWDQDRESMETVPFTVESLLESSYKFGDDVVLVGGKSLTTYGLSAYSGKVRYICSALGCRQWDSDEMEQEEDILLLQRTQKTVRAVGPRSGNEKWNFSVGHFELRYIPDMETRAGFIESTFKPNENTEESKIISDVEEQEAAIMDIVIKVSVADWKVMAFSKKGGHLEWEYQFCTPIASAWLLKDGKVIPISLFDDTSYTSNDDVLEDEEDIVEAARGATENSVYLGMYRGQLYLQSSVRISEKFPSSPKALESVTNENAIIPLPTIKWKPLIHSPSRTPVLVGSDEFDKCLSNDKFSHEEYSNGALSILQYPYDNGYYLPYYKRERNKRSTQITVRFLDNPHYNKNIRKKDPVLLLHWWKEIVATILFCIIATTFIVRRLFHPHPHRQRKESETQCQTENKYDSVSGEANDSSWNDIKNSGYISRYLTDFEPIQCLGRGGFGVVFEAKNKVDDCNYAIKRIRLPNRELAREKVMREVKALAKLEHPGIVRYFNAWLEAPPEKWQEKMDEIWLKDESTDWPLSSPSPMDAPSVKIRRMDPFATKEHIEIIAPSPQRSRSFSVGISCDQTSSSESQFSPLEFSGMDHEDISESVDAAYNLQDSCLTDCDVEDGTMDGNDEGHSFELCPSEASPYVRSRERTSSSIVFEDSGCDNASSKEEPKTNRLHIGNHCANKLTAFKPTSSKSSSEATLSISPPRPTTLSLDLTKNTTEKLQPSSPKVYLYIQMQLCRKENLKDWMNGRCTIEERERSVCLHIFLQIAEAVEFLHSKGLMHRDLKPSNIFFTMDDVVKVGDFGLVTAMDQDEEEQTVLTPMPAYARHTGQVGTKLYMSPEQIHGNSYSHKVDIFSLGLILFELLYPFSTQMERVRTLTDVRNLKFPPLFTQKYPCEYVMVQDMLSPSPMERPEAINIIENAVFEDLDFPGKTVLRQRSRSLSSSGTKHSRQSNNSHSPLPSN

[8] = test system: A549; test: Induction of apoptosis in human A549 cells assessed as increase in cleaved PARP expression at 20 uM pre-treated with pan-caspase inhibitor zVAD-FMK fopr 30 mins before compound incubation for 12 hrs by immunoblot analysis; format: functional, cell-based
[9] = test system: A549; test: Induction of apoptosis in human A549 cells assessed as necrotic cells at 20 uM after 24 hrs by Annexn V-FITC/propidium iodide staining based flow cytometry (reference value: 10%); format: functional
[10] = test system: A549; test: Induction of apoptosis in human A549 cells assessed as nuclear condensation and fragmentation at 20 uM after 18 hrs by Alexa Fluor-488/Hoechst 33258 staining based fluorescence microscopic method; format: functional, cell-based
[11] = test system: A549; test: Induction of apoptosis in human A549 cells assessed as live cells at 20 uM after 24 hrs by Annexn V-FITC/propidium iodide staining based flow cytometry (reference value: 83%); format: functional
[12] = test system: A549; test: Induction of ER stress-activated unfolded protein response pathway in human A549 cells harboring pFA-CHOP-GAL4/p-GAL4-DBD-Luc assessed as increase in CHOP trans-acting activity after 12 hrs by luciferase reporter gene assay; format: functional, cell-based
[13] = test system: A549; test: Induction of ER stress-activated unfolded protein response pathway-mediated apoptosis in human A549 cells assessed as increase in cleaved caspase-7 expression at 20 uM pre-treated with stress inhibitor 4-PBA before compound addition by immunoblot analysis; format: functional, cell-based
[14] = test system: A549; test: Induction of ER stress-activated unfolded protein response pathway in human A549 cells assessed as increase in IRE1alpha-mediated splicing of XBP1 by measuring increase in XBP1 (56 kDa) level at 20 uM after 6 to 12 hrs by immunoblot analysis; format: functional, cell-based
[15] = test system: NCI-H460; test: Anticlonogenic activity against human NCI-H460 cells at 20 uM after 7 days by crystal violet staining based assay; format: functional, cell-based
[16] = test system: A549; test: Cell cycle arrest in human A549 cells assessed as accumulation at G1 phase at 20 uM after 24 hrs by propidium iodide staining based flow cytometry (reference value: 57%); format: functional
[17] = test system: A549; test: Growth inhibition of human A549 cells assessed as cell viability at 10 uM after 24 hrs by CCK8 assay relative to control; format: functional; details: A549, 24 h, read-out: Activity
[18] = test system: A549; test: Induction of ER stress-activated unfolded protein response pathway in human A549 cells assessed as accumulation of IRE1alpha protein level at 20 uM after 12 hrs by immunoblot analysis; format: functional, cell-based
[19] = test system: A549; test: Induction of ER stress-activated unfolded protein response pathway in human A549 cells assessed as increase in ATF4 expression at 20 uM after 6 hrs by immunoblot analysis; format: functional, cell-based
[20] = test system: MDA-MB-231; test: Induction of apoptosis in human MDA-MB-231 cells assessed as increase in cleaved PARP expression at 20 uM after 12 hrs by immunoblot analysis; format: functional, cell-based
[21] = test system: NCI-H1299; test: Anticlonogenic activity against human NCI-H1299 cells at 20 uM after 7 days by crystal violet staining based assay; format: functional, cell-based
[22] = test system: A549; test: Induction of apoptosis in human A549 cells assessed as disruption of microtubule organization at 20 uM after 18 hrs by Alexa Fluor-488/Hoechst 33258 staining based fluorescence microscopic method; format: functional, cell-based
[23] = test system: A549; test: Induction of ER stress-activated unfolded protein response pathway in human A549 cells assessed as accumulation of GRP78 protein level at 20 uM after 12 hrs by immunoblot analysis; format: functional, cell-based
[24] = test system: A549; test: Induction of ER stress-activated unfolded protein response pathway in human A549 cells assessed as increase in IRE1alpha-mediated splicing of XBP1 mRNA by measuring increase in 540-base pair fragments at 20 uM within 3 hrs by RT-PCR analysis; format: functional, cell-based
[25] = test system: A549; test: Cell cycle arrest in human A549 cells assessed as accumulation at G2/M phase at 20 uM after 24 hrs by propidium iodide staining based flow cytometry (reference value: 14.8 to 15%); format: functional
[26] = test system: A549; test: Induction of apoptosis in human A549 cells assessed as increase in cleaved caspase-7 expression at 20 uM after 18 hrs by Alexa Fluor-488/Hoechst 33258 staining based fluorescence microscopic method; format: functional, cell-based
[27] = test system: A549; test: Induction of apoptosis in human A549 cells assessed as increase in cleaved caspase-9 expression at 20 uM after 12 hrs by immunoblot analysis; format: functional, cell-based
[28] = test system: A549; test: Growth inhibition of human A549 cells assessed as cell viability at 5 uM after 24 hrs by CCK8 assay relative to control; format: functional; details: A549, 24 h, read-out: Activity
[29] = test system: A549; test: Induction of apoptosis in human A549 cells assessed as increase in cleaved caspase-7 expression at 20 uM after 12 hrs by immunoblot analysis; format: functional, cell-based
[30] = test system: A549; test: Growth inhibition of human A549 cells assessed as cell viability at 20 uM after 24 hrs by CCK8 assay relative to control; format: functional; details: A549, 24 h, read-out: Activity
[31] = test system: A549; test: Induction of apoptosis in human A549 cells assessed as increase in cleaved PARP expression at 20 uM after 12 hrs by immunoblot analysis; format: functional, cell-based
[32] = test system: A549; test: Induction of ER stress-activated unfolded protein response pathway in human A549 cells assessed as increase in IRE1alpha-mediated splicing of XBP1 mRNA by measuring increase in 540-base pair fragments at 20 uM after 12 hrs by RT-PCR analysis; format: functional, cell-based
[33] = test system: A549; test: Induction of ER stress-activated unfolded protein response pathway in human A549 cells assessed as increase in CHOP expression at 20 uM after 6 to 12 hrs by immunoblot analysis; format: functional, cell-based
[34] = test system: MCF-12A; test: Induction of apoptosis in human MCF12A cells assessed as increase in cleaved PARP expression at 20 uM after 12 hrs by immunoblot analysis; format: cell-based
[35] = test system: A549; test: Anticlonogenic activity against human A549 cells at 20 uM after 7 days by crystal violet staining based assay; format: functional, cell-based
[36] = test system: A549; test: Cell cycle arrest in human A549 cells assessed as accumulation at S phase at 20 uM after 24 hrs by propidium iodide staining based flow cytometry (reference value: 25.6 to 26%); format: functional
[37] = test system: A549; test: Induction of apoptosis in human A549 cells assessed as early apoptotic cells at 20 uM after 24 hrs by Annexn V-FITC/propidium iodide staining based flow cytometry (reference value: 5%); format: functional
[38] = test system: A549; test: Induction of apoptosis in human A549 cells assessed as increase in cleaved caspase-7 expression at 20 uM pre-treated with pan-caspase inhibitor zVAD-FMK fopr 30 mins before compound incubation for 12 hrs by immunoblot analysis; format: functional, cell-based

Q: Which results are given for COc1cc(/C=C/C(=O)c2cc(OC)ccc2O)cc(OC)c1?
A: Activity [1]: 29.6 - 30%; Activity [2]: Active; Activity [3]: Active; Activity [4]: inactive; Activity [5]: 16%; Activity [6]: Active; Activity [7]: Active; Activity [8]: inactive; Activity [9]: 9%; Activity [10]: Active; Activity [11]: 56%; Activity [12]: Dose-dependent effect; Activity [13]: Active; Activity [14]: Active; Activity [15]: Active; Activity [16]: 29.8 - 30%; viability at 10 µM [17]: 83.9%; Activity [18]: Active; Activity [19]: Active; Activity [20]: Active; Activity [21]: Active; Activity [22]: Active; Activity [23]: Active; Activity [24]: Active; Activity [25]: 14 - 14.1%; Activity [26]: Active; Activity [27]: Active; viability at 5 µM [28]: 90.1%; Activity [29]: Active; viability at 20 µM [30]: 50.8%; Activity [31]: Active; Activity [32]: Active; Activity [33]: Active; Activity [34]: Non-Toxic; Activity [35]: Active; Activity [36]: 26 - 26.5%; Activity [37]: 18%; Activity [38]: inactive
